What was measured:
Assay type in all cases: in vivo, human
[1] = test system: adults with OSA and excessive sleepiness; assay: Epworth Sleepiness Scale (ESS), phase 3 randomized withdrawal study in OSA; conditions: for ESS score after 4 weeks of APC treatment: randomized patients, mITT
Description: (§1) The ESS is a subjective sleepiness test that is well known in the art and routinely used to measure the sleepiness level of a subject. The scale is intended to measure daytime sleepiness through the use of a short questionnaire that asks the subject to rate his or her probability of falling asleep on a scale of increasing probability from 0 to 3 for eight different situations that most people engage in during their daily lives. The scores for the eight questions are added together to obtain a single number that estimates the subject's average sleep propensity (ASP). A number in the 0-10 range is considered to be normal while 11-12 indicates mild excessive sleepiness, 13-15 indicates moderate excessive sleepiness, and 16 or higher indicates severe excessive sleepiness. Narcolepsy patients have an average score of about 17. Obstructive sleep apnea (OSA) patients with excessive sleepiness have an average score of about 15.
(§2) The study was a double-blind, placebo-controlled, enriched, randomized withdrawal design (FIG. 1). In the Titration Phase (weeks 1-2), patients started on a once-daily dose of APC 75 mg and could be titrated up or down every 3 days to reach a maximum tolerated dose of APC 75, 150, or 300 mg. In the Stable-Dose Phase (weeks 3-4), patients continued to receive the dose that they were titrated to in the Titration Phase for 2 weeks. […]
(§3) Efficacy was based on change from week 4 to 6 on the co-primary endpoints of MWT and ESS and percentage of patients reported as improved on the PGI-C and Clinician Global Impression of Change (CGI-C); assessed on a 7-point scale from 1 (very much improved) to 7 (very much worse).
(§4) MWT and ESS data were analyzed using a mixed-effect model repeated measures (MMRM); PGI-C and CGI-C were evaluated using a chi-square test. […] Safety and tolerability were evaluated based on treatment-emergent adverse events (TEAEs), vital signs, and laboratory values.

[2] = test system: patients with narcolepsy type 1 or type 2; assay: ESS, 12-week phase 3 study in narcolepsy
Description: as §1
The study was a 12-week, double-blind, randomized, placebo-controlled, parallel-group study. […]
(§5) Efficacy analyses were based on the modified intent-to-treat population (mITT), defined as all patients who were randomized, received at least 1 dose of study drug, and had baseline and at least 1 post-baseline evaluation of both MWT and ESS. MWT and ESS were analyzed using a mixed-effect repeated measures (MMRM) model. PGI-C was analyzed using a chi-square test. […]

[3] = test system: patients with narcolepsy type 1 or type 2; assay: PGI-C, 12-week phase 3 study in narcolepsy
Description: The study was a 12-week, double-blind, randomized, placebo-controlled, parallel-group study. Patients were randomized (1:1:1:1) to receive placebo or APC 75, 150, or 300 mg; randomization was stratified by the presence or absence of cataplexy.
Co-primary endpoints were change from baseline to week 12 in MWT mean sleep latency and ESS score. The key secondary endpoint was the percentage of patients who reported improvement on the Patient Global Impression of Change (PGI-C) (Guy, ECDEU assessment manual for psychopharmacology, revised. US Department of Health, Education, and Welfare publication (ADM 76-338). Rockville, MD: National Institute of Mental Health; 1976) at week 12. Other secondary and exploratory endpoints included changes on function and quality-of-life and changes in the number of cataplexy attacks per week. Safety evaluation included adverse events, laboratory tests, and vital signs.
as §5

[4] = test system: adults with OSA and excessive sleepiness; assay: PGI-C and CGI-C, phase 3 randomized withdrawal study in OSA; conditions: Double-Blind Withdrawal Phase, switched to placebo compared with stayed on APC
Description: as §2, §3, §4

## NC(=O)OC[C@H](N)Cc1ccccc1 [JZP-110, (R)-2-amino-3-phenylpropyl carbamate]
[1]; Double-Blind Withdrawal Phase, patients who stayed on APC, P<0.0001 vs switched to placebo
  Mean decrease in ESS score from week 4 to week 6: 0.1
[1]; group decreased from 15.3 at baseline
  ESS score after 4 weeks of APC treatment: 6.4
[1]; group decreased from 16.0 at baseline
  ESS score after 4 weeks of APC treatment: 5.9
[2]; 150 and 300 mg, as early as week 1
  ESS scores, effect at week 1: Statistically significant effects
[2]; all doses, week 12, mITT
  ESS scores relative to placebo: significantly decreased ESS scores relative to placebo
[3]; all doses (nominal P-value at 75 mg), week 12, mITT
  Percentage of patients who reported improvement in overall condition (PGI-C) relative to placebo: significantly increased the percentage of patients who reported improvement
[3]; all doses, as early as week 1
  PGI-C improvement, effect at week 1: Statistically significant effects
[4]
  Worsening of overall condition on the PGI-C and CGI-C: Significantly higher percentages of patients who were switched to placebo experienced a worsening of their overall condition
